From patent US20230250106A1, “COMPOUNDS AND COMPOSITIONS FOR TREATING CONDITIONS ASSOCIATED WITH STING ACTIVITY” (IFM Due, Inc., priority 2020, published 2023)

system: STING pathway; experiment: STING reporter assay: luciferase reporter activity in THP1-Dual KO-IFNAR2 cells activated with 2'3'cGAMP; type: cell-based; details: Homo sapiens, 2'3'cGAMP 15 μM, 24 h, read-out: hSTING EC50
Method in brief: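 Luciferase secreted into the supernatant (QUANTI-Luc Plus read-out) was measured after 24 h at 37 °C. This was in THP1-Dual KO-IFNAR2 cells given test compounds (0.0017-100 μM final) plus Lipofectamine-transfected 2′3′cGAMP at 15 μM final; EC50 was then derived.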

| Compound | EC50 |
| --- | --- |
| CC(C)(CO)CCCNc1ncc(C(=O)Nc2c[nH]c3cc(F)c(F)cc23)cc1Cl [Compound 209, 5-chloro-N-(5,6-difluoro-1H-indol-3-yl)-6-((5-hydroxy-4,4-dimethylpentyl)amino)nicotinamide] | 200 to 1000 nM |
| N#CC1(c2ccc(C(=O)Nc3c[nH]c4cc(F)c(F)cc34)cc2)CCC(F)(F)CC1 [Compound 213, 4-(1-cyano-4,4-difluorocyclohexyl)-N-(5,6-difluoro-1H-indol-3-yl)benzamide] | 200 to 1000 nM |
| O=C(Nc1c[nH]c2cc(F)c(F)cc12)c1ccc(C2CC(F)(F)C2)nc1 [Compound 216, N-(5,6-difluoro-1H-indol-3-yl)-6-(3,3-difluorocyclobutyl)nicotinamide] | 200 to 1000 nM |
| CC1(c2ccc(C(=O)Nc3c[nH]c4cc(F)c(F)cc34)cn2)CCN(CC(F)(F)F)CC1 [Compound 218, N-(5,6-difluoro-1H-indol-3-yl)-6-(4-methyl-1-(2,2,2-trifluoroethyl)piperidin-4-yl)nicotinamide] | 200 to 1000 nM |
| O=C(Nc1c[nH]c2cc(F)c(F)cc12)c1cnc(N2CCC3(CC2)CC3(F)F)c(F)c1 [Compound 219, N-(5,6-difluoro-1H-indol-3-yl)-6-(1,1-difluoro-6-azaspiro[2.5]octan-6-yl)-5-fluoronicotinamide] | 40 to 200 nM |
| CC1(c2ncc(C(=O)Nc3c[nH]c4cc(F)c(F)cc34)cc2F)CCC(F)(F)CC1 [Compound 220, 6-(4,4-difluoro-1-methylcyclohexyl)-N-(5,6-difluoro-1H-indol-3-yl)-5-fluoronicotinamide] | 40 to 200 nM |
| O=C(Nc1c[nH]c2cc(F)c(F)cc12)c1cnc(N2CC3(CC(OCC(F)(F)F)C3)C2)c(F)c1 [Compound 221, N-(5,6-difluoro-1H-indol-3-yl)-5-fluoro-6-(6-(2,2,2-trifluoroethoxy)-2-azaspiro[3.3]heptan-2-yl)nicotinamide] | 40 to 200 nM |
| O=C(Nc1c[nH]c2cc(F)c(F)cc12)c1cnc(C2CC3(CC(OCC(F)(F)F)C3)C2)c(F)c1 (stereo not shown) [Compound 222, N-(5,6-difluoro-1H-indol-3-yl)-5-fluoro-6-(6-(2,2,2-trifluoroethoxy)spiro[3.3]heptan-2-yl)nicotinamide] | 200 to 1000 nM |
| O=C(Nc1c[nH]c2cc(F)c(F)cc12)c1cnc(N2C[C@@H]3[C@@H](COCC(F)(F)F)[C@@H]3C2)c(F)c1 [Compound 223, N-(5,6-difluoro-1H-indol-3-yl)-5-fluoro-6-((1R,5S,6r)-6-((2,2,2-trifluoroethoxy)methyl)-3-azabicyclo[3.1.0]hexan-3-yl)nicotinamide] | 40 to 200 nM |
| O=C(Nc1c[nH]c2ccc(Cl)cc12)c1cnc(N2C[C@@H]3[C@@H](COCC(F)(F)F)[C@@H]3C2)c(F)c1 [Compound 224, N-(5-chloro-1H-indol-3-yl)-5-fluoro-6-((1R,5S,6r)-6-((2,2,2-trifluoroethoxy)methyl)-3-azabicyclo[3.1.0]hexan-3-yl)nicotinamide] | 40 to 200 nM |
| O=C(Nc1c[nH]c2ccc(Cl)cc12)c1ccc(N2C[C@@H]3[C@@H](COCC(F)(F)F)[C@@H]3C2)c(F)c1 [Compound 225, N-(5-chloro-1H-indol-3-yl)-3-fluoro-4-((1R,5S,6r)-6-((2,2,2-trifluoroethoxy)methyl)-3-azabicyclo[3.1.0]hexan-3-yl)benzamide] | 40 to 200 nM |
| COCCOc1ncc(C(=O)Nc2c[nH]c3cc(F)c(F)cc23)cc1C [Compound 226, N-(5,6-difluoro-1H-indol-3-yl)-6-(2-methoxyethoxy)-5-methylnicotinamide] | 200 to 1000 nM |
| O=C(Nc1c[nH]c2cc(F)c(F)cc12)c1ccc(N2C[C@@H]3[C@@H](COCC(F)(F)F)[C@@H]3C2)c(F)c1 [Compound 227, N-(5,6-difluoro-1H-indol-3-yl)-3-fluoro-4-((1R,5S,6r)-6-((2,2,2-tifluoroethoxy)methyl)-3-azabicyclo[3.1.0]hexan-3-yl)benzamide] | 40 to 200 nM |
| CCC(O)Cc1ccc(C(=O)Nc2c[nH]c3cc(F)c(F)cc23)cn1 (stereo not shown) [Compound 228, N-(5,6-difluoro-1H-indol-3-yl)-6-(2-hydroxybutyl)nicotinamide] | 1000 to 5000 nM |
| O=C(Nc1c[nH]c2ccc(Cl)cc12)c1ccc(CC2CCN(CC(F)(F)F)CC2)cc1 [Compound 229, N-(5-chloro-1H-indol-3-yl)-4-((1-(2,2,2-trifluoroethyl)piperidin-4-yl)methyl)benzamide] | 40 to 200 nM |
| O=C(Nc1c[nH]c2ccc(Cl)cc12)c1ccc(OC2CCN(CC(F)(F)F)CC2)cc1 [Compound 230, N-(5-chloro-1H-indol-3-yl)-4-((1-(2,2,2-trifluoroethyl)piperidin-4-yl)oxy)benzamide] | 40 to 200 nM |
| COCCOc1cc(C(=O)Nc2c[nH]c3cc(F)c(F)cc23)ccc1C(F)(F)F [Compound 232, N-(5,6-difluoro-1H-indol-3-yl)-3-(2-methoxyethoxy)-4-(trifluoromethyl)benzamide] | 200 to 1000 nM |
| O=C(Nc1c[nH]c2cc(F)c(F)cc12)c1ccc(C(O)C2CC(F)(F)C2)cc1 (stereo not shown) [Compound 233, N-(5,6-difluoro-1H-indol-3-yl)-4-((3,3-difluorocyclobutyl)(hydroxy)methyl)benzamide] | 200 to 1000 nM |
| O=C(Nc1c[nH]c2cc(F)c(F)cc12)c1cccc(-c2noc(C3CC3)n2)c1 [Compound 234, 3-(5-cyclopropyl-1,2,4-oxadiazol-3-yl)-N-(5,6-difluoro-1H-indol-3-yl)benzamide] | 200 to 1000 nM |

| Compound | EC50 |
| --- | --- |
| O=C(Nc1c[nH]c2cc(F)c(F)cc12)c1ccnc(C(O)C(F)(F)F)c1 (stereo not shown) [Compound 235, N-(5,6-difluoro-1H-indol-3-yl)-2-(2,2,2-trifluoro-1-hydroxyethyl)isonicotinamide] | 5000 to 100000 nM |
| COCCNc1cc(C(=O)Nc2c[nH]c3cc(F)c(F)cc23)ccc1C(F)(F)F [Compound 236, N-(5,6-difluoro-1H-indol-3-yl)-3-((2-methoxyethyl)amino)-4-(trifluoromethyl)benzamide] | 200 to 1000 nM |
| O=C(Nc1c[nH]c2cc(F)c(F)cc12)c1ccc(CN2CC3(C2)CC(F)(F)C3)c(F)c1 [Compound 237, N-(5,6-difluoro-1H-indol-3-yl)-4-((6,6-difluoro-2-azaspiro[3.3]heptan-2-yl)methyl)-3-fluorobenzamide] | 200 to 1000 nM |
| COCCNc1cc(C(=O)Nc2c[nH]c3cc(F)c(F)cc23)ccn1 [Compound 238, N-(5,6-difluoro-1H-indol-3-yl)-2-((2-methoxyethyl)amino)isonicotinamide] | 5000 to 100000 nM |
| O=C(Nc1c[nH]c2cc(F)c(F)cc12)c1cnc(NCCC(F)(F)F)c(Cl)c1 [Compound 239, 5-chloro-N-(5,6-difluoro-1H-indol-3-yl)-6-((3,3,3-trifluoropropyl)amino)nicotinamide] | 200 to 1000 nM |
| O=C(Nc1c[nH]c2cc(F)c(F)cc12)c1cnc(C2CC(F)(F)C2)c(Cl)c1 [Compound 240, 5-chloro-N-(5,6-difluoro-1H-indol-3-yl)-6-(3,3-difluorocyclobutyl)nicotinamide] | 200 to 1000 nM |
| CCC(O)c1cc(C(=O)Nc2c[nH]c3cc(F)c(F)cc23)ccn1 (stereo not shown) [Compound 241, N-(5,6-difluoro-1H-indol-3-yl)-2-(1-hydroxypropyl)isonicotinamide] | 5000 to 100000 nM |
| O=C(Nc1c[nH]c2cc(F)c(F)cc12)c1cnc(NCCC(F)(F)F)c(F)c1 [Compound 242, N-(5,6-difluoro-1H-indol-3-yl)-5-fluoro-6-((3,3,3-trifluoropropyl)amino)nicotinamide] | 200 to 1000 nM |
| Cc1ncc(C(=O)Nc2c[nH]c3cc(F)c(F)cc23)cc1NCCCC(F)(F)F [Compound 243, N-(5,6-difluoro-1H-indol-3-yl)-6-methyl-5-((4,4,4-trifluorobutyl)amino)nicotinamide] | 200 to 1000 nM |
| O=C(Nc1c[nH]c2cc(F)c(F)cc12)c1ccc(OC2CN(CC(F)(F)F)C2)nc1 [Compound 246, N-(5,6-difluoro-1H-indol-3-yl)-6-((1-(2,2,2-trifluoroethyl)azetidin-3-yl)oxy)nicotinamide] | 200 to 1000 nM |
| O=C(Nc1c[nH]c2cc(F)c(F)cc12)c1ccnc(NC2CC(F)(F)C2)c1 [Compound 247, N-(5,6-difluoro-1H-indol-3-yl)-2-((3,3-difluorocyclobutyl)amino)isonicotinamide] | 200 to 1000 nM |
| O=C(Nc1c[nH]c2cc(F)c(F)cc12)c1ccc(C2(O)CCOCC2)cc1 [Compound 248, N-(5,6-difluoro-1H-indol-3-yl)-4-(4-hydroxytetrahydro-2H-pyran-4-yl)benzamide] | 5000 to 100000 nM |
| CC(C)(C)OC(=O)N1CCC(Oc2ccc(C(=O)Nc3c[nH]c4cc(F)c(F)cc34)cc2)CC1 [Compound 249, tert-butyl 4-{4-[(5,6-difluoro-1H-indol-3-yl)carbamoyl]phenoxy}piperidine-1-carboxylate] | 200 to 1000 nM |
| O=C(Nc1c[nH]c2cc(F)c(F)cc12)c1ccc(C2(O)CCC(F)(F)CC2)nc1 [Compound 250, 6-(4,4-difluoro-1-hydroxycyclohexyl)-N-(5,6-difluoro-1H-indol-3-yl)nicotinamide] | 1000 to 5000 nM |
| O=C(Nc1c[nH]c2cc(F)c(F)cc12)c1cccc(C2(O)CCC(F)(F)CC2)c1 [Compound 251, 3-(4,4-difluoro-1-hydroxycyclohexyl)-N-(5,6-difluoro-1H-indol-3-yl)benzamide] | 1000 to 5000 nM |
| O=C(Nc1c[nH]c2cc(F)c(F)cc12)c1ccnc(N2CC(F)(F)C2)c1Cl [Compound 252, 3-chloro-N-(5,6-difluoro-1H-indol-3-yl)-2-(3,3-difluoroazetidin-1-yl)isonicotinamide] | 1000 to 5000 nM |
| Cc1c(C(=O)Nc2c[nH]c3cc(F)c(F)cc23)ccnc1N1CC(F)(F)C1 [Compound 253, N-(5,6-difluoro-1H-indol-3-yl)-2-(3,3-difluoroazetidin-1-yl)-3-methylisonicotinamide] | 1000 to 5000 nM |
| O=C(Nc1c[nH]c2cc(F)c(F)cc12)c1cnc(CN2CCC(F)(F)CC2)c(Cl)c1 [Compound 254, 5-chloro-N-(5,6-difluoro-1H-indol-3-yl)-6-((4,4-difluoropiperidin-1-yl)methyl)nicotinamide] | 200 to 1000 nM |
